Measurements: ChEMBL document CHEMBL1124623, “2,4-Diamino-5-benzylpyrimidines and analogues as antibacterial agents. 12. 1,2-Dihydroquinolylmethyl analogues with high activity and specificity for bacterial dihydrofolate reductase” (J Med Chem, 1989)
Values after ≈ are worked out from the molar mass of the structure shown.

Assays:
Dihydrofolate reductase [1] = target: T1, Dihydrofolate reductase (Rattus norvegicus, UniProt Q920D2)
T1 sequence (Q920D2 whole entry): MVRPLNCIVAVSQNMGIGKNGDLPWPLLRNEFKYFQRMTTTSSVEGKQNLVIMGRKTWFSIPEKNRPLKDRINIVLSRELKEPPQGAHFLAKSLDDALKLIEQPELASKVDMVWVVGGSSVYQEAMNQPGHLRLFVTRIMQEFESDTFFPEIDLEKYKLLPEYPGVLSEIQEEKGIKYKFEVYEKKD

Escherichia coli [2] = assay: Comparative in vitro antibacterial activity of compound with trimethoprim against Escherichia coli CN314; format: functional
Klebsiella aerogenes [3] = assay: Comparative in vitro antibacterial activity of compound with trimethoprim against Enterobacter aerogenes 2200/86; format: functional
Klebsiella pneumoniae [4] = assay: Comparative in vitro antibacterial activity of compound with trimethoprim against Klebsiella pneumoniae CN3632; format: functional
Proteus vulgaris [5] = assay: Comparative in vitro antibacterial activity of compound with trimethoprim against Proteus vulgaris CN329; format: functional
[6] = Comparative in vitro antibacterial activity of compound with trimethoprim against Salmonella typhi CN512; format: functional, salmonella typhosa
Shigella flexneri [7] = assay: Comparative in vitro antibacterial activity of compound with trimethoprim against Shigella flexneri CN6007; format: functional
Salmonella typhimurium [8] = assay: Comparative in vitro antibacterial activity of compound with trimethoprim against Salmonella Typhimurium S 8587; format: functional, Salmonella enterica subsp. enterica serovar Typhimurium; conditions: Salmonella enterica
Streptococcus pyogenes [9] = assay: Comparative in vitro antibacterial activity of compound with trimethoprim against Streptococcus pyogenes CN10; format: functional
Staphylococcus aureus = assay: Comparative in vitro antibacterial activity of compound with trimethoprim against Staphylococcus aureus CN491; format: functional
Enterococcus faecalis = assay: Comparative in vitro antibacterial activity of compound with trimethoprim against Streptococcus faecalis CN478; format: functional
Streptococcus agalactiae [10] = assay: Comparative in vitro antibacterial activity of compound with trimethoprim against Streptococcus agalactiae CN1143; format: functional
Vibrio cholerae = assay: Comparative in vitro antibacterial activity of compound with trimethoprim against Vibrio cholerae ATCC 14035; format: functional
[11] = Dissociation constant of compound at 20 degree C; format: physicochemical
Escherichia coli [12] = assay: Comparative in vitro antibacterial activity of compound with trimethoprim against Escherichia coli CN314 on different day; format: functional
Klebsiella aerogenes [13] = assay: Comparative in vitro antibacterial activity of compound with trimethoprim against Enterobacter aerogenes 2200/86 on different day; format: functional
Klebsiella pneumoniae [14] = assay: Comparative in vitro antibacterial activity of compound with trimethoprim against Klebsiella pneumoniae CN3632 on different day; format: functional
Proteus vulgaris [15] = assay: Comparative in vitro antibacterial activity of compound with trimethoprim against Proteus vulgaris CN329 on different day; format: functional
[16] = Comparative in vitro antibacterial activity of compound with trimethoprim against Salmonella typhi CN512 on different day; format: functional, salmonella typhosa
Salmonella typhimurium [17] = assay: Comparative in vitro antibacterial activity of compound with trimethoprim against Salmonella Typhimurium S 8587 on different day; format: functional, Salmonella enterica subsp. enterica serovar Typhimurium; conditions: Salmonella enterica
Streptococcus pyogenes [18] = assay: Comparative in vitro antibacterial activity of compound with trimethoprim against Streptococcus pyogenes CN10 on different day; format: functional
Streptococcus agalactiae [19] = assay: Comparative in vitro antibacterial activity of compound with trimethoprim against Streptococcus agalactiae CN1143 on different day; format: functional
Shigella flexneri [20] = assay: Comparative in vitro antibacterial activity of compound with trimethoprim against Shigella flexneri CN6007 on different day; format: functional
Dihydrofolate reductase [21] = target: T2, Dihydrofolate reductase (Escherichia coli, UniProt P0ABQ4)
T2 sequence (P0ABQ4 whole entry): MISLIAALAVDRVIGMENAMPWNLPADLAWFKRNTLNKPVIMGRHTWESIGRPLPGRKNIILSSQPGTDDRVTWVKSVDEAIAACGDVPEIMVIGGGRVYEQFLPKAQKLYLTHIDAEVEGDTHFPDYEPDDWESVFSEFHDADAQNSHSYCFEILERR
Description: Apparent binding affinity of compound in Escherichia coli DHFR

Dihydrofolate reductase [22] = target: T1, Dihydrofolate reductase; assay: Inhibitory activity against Dihydrofolate reductase in rat liver; format: functional, tissue-based; conditions: read-out: I50
Dihydrofolate reductase [23] = target: T3, Dihydrofolate reductase (Gallus gallus, UniProt P00378); assay: Inhibitory activity against Dihydrofolate reductase in chicken; conditions: read-out: I50
T3 sequence (P00378 whole entry): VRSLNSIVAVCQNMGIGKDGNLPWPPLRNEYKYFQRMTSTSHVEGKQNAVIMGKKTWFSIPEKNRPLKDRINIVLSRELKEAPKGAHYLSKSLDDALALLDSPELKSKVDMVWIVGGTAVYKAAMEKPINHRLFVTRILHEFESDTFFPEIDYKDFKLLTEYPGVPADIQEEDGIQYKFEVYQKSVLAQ

Structure (SMILES)	IC50 (Dihydrofolate reductase [1])	MIC (Escherichia coli [2])	MIC (Klebsiella aerogenes [3])	MIC (Proteus vulgaris [5])	MIC [6]	MIC (Shigella flexneri [7])	MIC (Salmonella typhimurium [8])	MIC (Streptococcus pyogenes [9])	MIC (Staphylococcus aureus)	MIC (Enterococcus faecalis)	MIC (Streptococcus agalactiae [10])	MIC (Vibrio cholerae)	also measured
CC1=CC(C)(C)Nc2c1cc(Cc1cnc(N)nc1N)cc2[S+](C)[O-] (stereo not drawn)	56 µM	–	–	–	–	–	–	–	–	–	–	–	–
CC1=CC(C)(C)Nc2c(Cl)cc(Cc3cnc(N)nc3N)cc21	76 µM	100 µg/mL (≈ 303 µM)	300 µg/mL (≈ 910 µM)	30 µg/mL (≈ 91 µM)	30 µg/mL (≈ 91 µM)	100 µg/mL (≈ 303 µM)	30 µg/mL (≈ 91 µM)	10 µg/mL (≈ 30.3 µM)	30 µg/mL (≈ 91 µM)	300 µg/mL (≈ 910 µM)	100 µg/mL (≈ 303 µM)	100 µg/mL (≈ 303 µM)	MIC (Klebsiella pneumoniae [4]): 30 µg/mL (≈ 91 µM)
CC1=CC(C)(C)Nc2ccc(Cc3cnc(N)nc3N)cc21	240 µM	–	–	–	–	–	–	–	–	–	–	–	–
COc1cc(Cc2cnc(N)nc2N)cc2c1N(C)C(C)(C)C=C2C	340 µM	–	–	–	–	–	–	–	–	–	–	–	–
COc1cccc2c1N(C)C(C)(C)C=C2C	–	–	–	–	–	–	–	–	–	–	–	–	pKa [11]: 6.82
COc1cc(Cc2cnc(N)nc2N)cc2c1N(CCOC(C)=O)C(C)(C)C=C2C	164 µM	–	–	–	–	–	–	–	–	–	–	–	–
COc1cc(Cc2cnc(N)nc2N)cc2c1NC(C)(C)CC2C (stereo not drawn)	430 µM	30 µg/mL (≈ 91.6 µM)	10 µg/mL (≈ 30.5 µM)	> 100 µg/mL	100 µg/mL (≈ 305 µM)	30 µg/mL (≈ 91.6 µM)	30 µg/mL (≈ 91.6 µM)	1 µg/mL (≈ 3.05 µM)	3 µg/mL (≈ 9.16 µM)	1 µg/mL (≈ 3.05 µM)	1 µg/mL (≈ 3.05 µM)	3 µg/mL (≈ 9.16 µM)	–
CN1CCCc2ccccc21	–	–	–	–	–	–	–	–	–	–	–	–	pKa [11]: 4.1
COc1cc(Cc2cnc(N)nc2N)cc2c(C)ccnc12	20 µM	–	–	–	–	–	–	–	–	–	–	–	–
COc1cccc2c1NC(C)(C)C=C2C	–	–	–	–	–	–	–	–	–	–	–	–	pKa [11]: 3.36
CCN1CCC(C)c2ccccc21 (stereo not drawn)	–	–	–	–	–	–	–	–	–	–	–	–	pKa [11]: 4.18
CC1=CC(C)(C)Nc2ccccc21	–	–	–	–	–	–	–	–	–	–	–	–	pKa [11]: 3.69
CC1=CC(C)(C)Nc2c1cc(Cc1cnc(N)nc1N)c1cccnc21	–	30 µg/mL (≈ 86.6 µM)	10 µg/mL (≈ 28.9 µM)	> 100 µg/mL	30 µg/mL (≈ 86.6 µM)	100 µg/mL (≈ 289 µM)	100 µg/mL (≈ 289 µM)	0.03 µg/mL (≈ 0.0866 µM)	0.1 µg/mL (≈ 0.289 µM)	0.3 µg/mL (≈ 0.866 µM)	0.3 µg/mL (≈ 0.866 µM)	1 µg/mL (≈ 2.89 µM)	MIC (Klebsiella pneumoniae [4]): > 300 µg/mL
COc1cc(Cc2cnc(N)nc2N)cc2c1NC(C)(CF)C(F)=C2C (stereo not drawn)	233 µM	1 µg/mL (≈ 2.77 µM)	1 µg/mL (≈ 2.77 µM)	3 µg/mL (≈ 8.3 µM)	1 µg/mL (≈ 2.77 µM)	3 µg/mL (≈ 8.3 µM)	3 µg/mL (≈ 8.3 µM)	0.03 µg/mL (≈ 0.083 µM)	0.001 µg/mL (≈ 0.00277 µM)	0.0001 µg/mL (≈ 0.000277 µM)	0.1 µg/mL (≈ 0.277 µM)	3 µg/mL (≈ 8.3 µM)	MIC (Escherichia coli [12]): 10 µg/mL (≈ 27.7 µM); MIC (Klebsiella aerogenes [13]): 10 µg/mL (≈ 27.7 µM); MIC (Klebsiella pneumoniae [4]): 10 µg/mL (≈ 27.7 µM); MIC (Klebsiella pneumoniae [14]): 1 µg/mL (≈ 2.77 µM); MIC (Proteus vulgaris [15]): 3 µg/mL (≈ 8.3 µM); MIC [16]: 30 µg/mL (≈ 83 µM); MIC (Salmonella typhimurium [17]): 3 µg/mL (≈ 8.3 µM); MIC (Streptococcus pyogenes [18]): 0.0001 µg/mL (≈ 0.000277 µM); MIC (Streptococcus agalactiae [19]): 0.03 µg/mL (≈ 0.083 µM); MIC (Shigella flexneri [20]): 0.3 µg/mL (≈ 0.83 µM); Ki (Dihydrofolate reductase [21]): 0.0001 µM
CSc1cc(Cc2cnc(N)nc2N)cc2c1NC(C)(C)C=C2C	118 µM	10 µg/mL (≈ 29.3 µM)	10 µg/mL (≈ 29.3 µM)	> 100 µg/mL	30 µg/mL (≈ 87.9 µM)	30 µg/mL (≈ 87.9 µM)	30 µg/mL (≈ 87.9 µM)	0.1 µg/mL (≈ 0.293 µM)	0.3 µg/mL (≈ 0.879 µM)	≤ 0.03 µg/mL	0.3 µg/mL (≈ 0.879 µM)	1 µg/mL (≈ 2.93 µM)	MIC (Klebsiella pneumoniae [4]): 100 µg/mL (≈ 293 µM); Ki (Dihydrofolate reductase [21]): 0.00043 µM
COc1cc(Cc2cnc(N)nc2N)cc2c1N(C)CCC2C (stereo not drawn)	–	–	–	–	–	–	–	–	–	–	–	–	pKa [11]: 6.51; IC50 (Dihydrofolate reductase [22]): 250 µM
COc1cc(Cc2cnc(N)nc2N)cc2c1NCCC2C (stereo not drawn)	33 µM	–	–	–	–	–	–	–	–	–	–	–	–
CCc1cc(Cc2cnc(N)nc2N)cc2c1NC(C)(C)C=C2C	174 µM	–	–	–	–	–	–	–	–	–	–	–	–
CC1=CC(C)(C)Nc2c(C)cc(Cc3cnc(N)nc3N)cc21	500 µM	–	–	–	–	–	–	–	–	–	–	–	–
CCOc1cc(Cc2cnc(N)nc2N)cc2c1NC(C)(C)C=C2C	250 µM	–	–	–	–	–	–	–	–	–	–	–	–
COc1cc(Cc2cnc(N)nc2N)cc2c1NC(C)(C)C=C2C	300 µM	3 µg/mL (≈ 9.22 µM)	3 µg/mL (≈ 9.22 µM)	3 µg/mL (≈ 9.22 µM)	10 µg/mL (≈ 30.7 µM)	3 µg/mL (≈ 9.22 µM)	10 µg/mL (≈ 30.7 µM)	0.1 µg/mL (≈ 0.307 µM)	0.3 µg/mL (≈ 0.922 µM)	0.1 µg/mL (≈ 0.307 µM)	0.3 µg/mL (≈ 0.922 µM)	3 µg/mL (≈ 9.22 µM)	IC50 (Dihydrofolate reductase [23]): 1.3 µM; MIC (Klebsiella pneumoniae [4]): 10 µg/mL (≈ 30.7 µM)
COc1cc(Cc2cnc(N)nc2N)cc2c1NC(C)(CF)C=C2CF (stereo not drawn)	230 µM	10 µg/mL (≈ 27.7 µM)	30 µg/mL (≈ 83 µM)	10 µg/mL (≈ 27.7 µM)	10 µg/mL (≈ 27.7 µM)	10 µg/mL (≈ 27.7 µM)	3 µg/mL (≈ 8.3 µM)	0.1 µg/mL (≈ 0.277 µM)	0.3 µg/mL (≈ 0.83 µM)	0.3 µg/mL (≈ 0.83 µM)	0.3 µg/mL (≈ 0.83 µM)	3 µg/mL (≈ 8.3 µM)	MIC (Klebsiella pneumoniae [4]): 10 µg/mL (≈ 27.7 µM)
CC1CC(C)(C)Nc2ccc(Cc3cnc(N)nc3N)cc21 (stereo not drawn)	300 µM	–	–	–	–	–	–	–	–	–	–	–	–
